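These data come from cells grown in 96-well plates and exposed to compound for 48 hours at five concentrations. GI50 = concentration required for 50% inhibition of growth.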 Activity calls are given as the source filed them. No stated cut-off is given here; in the data, active = GI50 up to about 1.1 µM and inactive = higher.
Columns and labels:
Assay in all cases: NCI-60 cell line screen, 48 h
MDA-N = test system: MDA-N
COLO 205 = test system: COLO 205
OVCAR-8 = test system: OVCAR-8
SF-295 = test system: SF-295
SK-MEL-28 = test system: SK-MEL-28
TK-10 = test system: TK-10
CAKI-1 = test system: CAKI-1
OVCAR-3 = test system: OVCAR-3
Malme-3M = test system: Malme-3M
BT-549 = test system: BT-549
OVCAR-5 = test system: OVCAR-5
HT-29 = test system: HT-29
SF-539 = test system: SF-539
K562 = test system: K562
DU-145 = test system: DU-145
HL-60 = test system: HL-60
NCI-H226 = test system: NCI-H226
HCC 2998 = test system: HCC 2998
SNB-75 = test system: SNB-75
LOX IMVI = test system: LOX IMVI

Measured: GI50

CCCCCC(O)C1C(=O)OC(C)C(O)/C=C/C=C/C=C/C=C\C=C(\C)C(O)CC(O)CC(O)CC(O)CC(O)CC(O)CC1O (stereo not given)
inactive: MDA-N > 50 µM | COLO 205 > 50 µM | OVCAR-8 > 50 µM | SF-295 > 50 µM | SK-MEL-28 > 50 µM | TK-10 > 50 µM | CAKI-1 > 50 µM | OVCAR-3 > 50 µM | Malme-3M > 50 µM | BT-549 > 50 µM | OVCAR-5 > 50 µM | HT-29 > 50 µM | SF-539 > 50 µM | K562 > 50 µM | DU-145 > 50 µM | HL-60 > 50 µM | NCI-H226 > 50 µM | HCC 2998 > 50 µM | SNB-75 > 50 µM | LOX IMVI > 50 µM

N#CC(/N=N/c1ccccc1)c1nc2ccccc2o1 (stereo not given)
inactive: MDA-N 95.7 µM | COLO 205 19.3 µM | OVCAR-8 24.5 µM | SF-295 17.4 µM | SK-MEL-28 > 100 µM | TK-10 24.5 µM | CAKI-1 31.9 µM | OVCAR-3 25.4 µM | Malme-3M 55.8 µM | BT-549 20.7 µM | OVCAR-5 56.5 µM | HT-29 61.4 µM | SF-539 14.7 µM | K562 45.1 µM | DU-145 26.5 µM | HL-60 > 100 µM | NCI-H226 35.7 µM | HCC 2998 > 100 µM

C=CCn1c(-c2ccc(Cl)cc2)cs/c1=N\c1ccccc1OC
inactive: MDA-N 2.1 µM | COLO 205 35.8 µM | OVCAR-8 27 µM | SF-295 16.6 µM | SK-MEL-28 > 47.2 µM | TK-10 > 100 µM | CAKI-1 > 45.2 µM | OVCAR-3 40.8 µM | Malme-3M 31.1 µM | BT-549 > 52.5 µM | OVCAR-5 > 59.3 µM | SF-539 > 76.7 µM | K562 3.44 µM | DU-145 > 100 µM | HL-60 14.9 µM | NCI-H226 > 64.7 µM | HCC 2998 > 100 µM | SNB-75 > 33.3 µM | LOX IMVI 41.1 µM

O=C(NC(OCc1ccccc1)(C(F)(F)F)C(F)(F)F)OCc1ccccc1
inactive: MDA-N 15.2 µM | COLO 205 17.8 µM | OVCAR-8 16.3 µM | SF-295 17.6 µM | SK-MEL-28 17.7 µM | TK-10 7.8 µM | CAKI-1 14.4 µM | OVCAR-3 15.3 µM | Malme-3M 18 µM | BT-549 15.4 µM | OVCAR-5 14.3 µM | HT-29 18 µM | SF-539 17.3 µM | K562 17.1 µM | DU-145 16.6 µM | HL-60 17.1 µM | NCI-H226 14.1 µM | HCC 2998 15.4 µM | SNB-75 15.6 µM | LOX IMVI 14.5 µM

CCOP(=O)(C/C=C/Cn1ncc(=O)[nH]c1=O)OCC
inactive: MDA-N > 100 µM | COLO 205 > 100 µM | OVCAR-8 > 100 µM | SK-MEL-28 > 100 µM | TK-10 > 100 µM | CAKI-1 > 100 µM | OVCAR-3 > 100 µM | Malme-3M > 100 µM | BT-549 > 100 µM | OVCAR-5 > 100 µM | HT-29 > 100 µM | SF-539 > 100 µM | K562 > 100 µM | DU-145 > 100 µM | HL-60 > 100 µM | NCI-H226 > 100 µM | HCC 2998 > 100 µM | SNB-75 > 100 µM | LOX IMVI > 100 µM

CCOC(=O)c1nc2cc(C(F)(F)F)ccc2nc1Oc1ccc(OC)cc1
inactive: MDA-N > 100 µM | COLO 205 > 100 µM | OVCAR-8 > 100 µM | SF-295 > 100 µM | SK-MEL-28 > 100 µM | TK-10 > 100 µM | CAKI-1 > 100 µM | OVCAR-3 > 100 µM | Malme-3M > 100 µM | BT-549 > 100 µM | OVCAR-5 > 100 µM | SF-539 > 100 µM | K562 > 100 µM | DU-145 > 100 µM | HL-60 > 100 µM | NCI-H226 > 100 µM | HCC 2998 > 100 µM | SNB-75 > 100 µM | LOX IMVI > 100 µM

CN(CCC#N)c1ccc(/C=C2\SC(=S)NC2=O)cc1
inactive: MDA-N 53.6 µM | COLO 205 48.2 µM | OVCAR-8 > 100 µM | SF-295 35.9 µM | SK-MEL-28 40.1 µM | TK-10 49.7 µM | CAKI-1 > 100 µM | OVCAR-3 27.7 µM | Malme-3M > 100 µM | BT-549 21.7 µM | OVCAR-5 > 100 µM | HT-29 87.1 µM | SF-539 49.4 µM | K562 45.4 µM | DU-145 73.6 µM | HL-60 24.3 µM | NCI-H226 > 100 µM | HCC 2998 51.6 µM | SNB-75 35 µM | LOX IMVI 8.2 µM

C=CCOCn1cc(F)c(=O)[nH]c1=O
inactive: MDA-N > 100 µM | COLO 205 > 100 µM | OVCAR-8 > 100 µM | SF-295 > 100 µM | SK-MEL-28 > 100 µM | TK-10 > 100 µM | CAKI-1 > 100 µM | Malme-3M > 100 µM | BT-549 > 100 µM | HT-29 > 100 µM | SF-539 > 100 µM | K562 > 100 µM | DU-145 > 100 µM | HL-60 > 100 µM | NCI-H226 > 100 µM | HCC 2998 > 100 µM | SNB-75 31.6 µM | LOX IMVI > 100 µM

C=CCN(c1cc(OC)c2[nH]c(C(=O)O)c(C)c2c1[N+](=O)[O-])S(C)(=O)=O
inactive: MDA-N > 100 µM | COLO 205 > 100 µM | OVCAR-8 > 100 µM | SF-295 > 100 µM | SK-MEL-28 > 100 µM | TK-10 > 100 µM | CAKI-1 > 100 µM | OVCAR-3 > 100 µM | Malme-3M 9.79 µM | BT-549 > 100 µM | OVCAR-5 > 100 µM | SF-539 > 100 µM | K562 > 100 µM | DU-145 > 100 µM | HL-60 > 100 µM | NCI-H226 > 100 µM | HCC 2998 > 100 µM | SNB-75 > 100 µM | LOX IMVI > 100 µM

CCC(c1c[nH]c2ccc(Br)cc12)c1c[nH]c2ccc(Br)cc12
inactive: MDA-N 4.33 µM | COLO 205 2.42 µM | OVCAR-8 4.53 µM | SF-295 5.92 µM | SK-MEL-28 11.5 µM | TK-10 10.9 µM | CAKI-1 2.45 µM | OVCAR-3 3.96 µM | Malme-3M 10.6 µM | BT-549 10.3 µM | OVCAR-5 3.78 µM | HT-29 3.08 µM | SF-539 12.5 µM | K562 2.54 µM | DU-145 2.88 µM | HL-60 4.39 µM | NCI-H226 11.8 µM | HCC 2998 2.19 µM | LOX IMVI 2.44 µM

CC1=C/C(=N\NC(N)=S)C(C(O)(C(F)(F)F)C(F)(F)F)C(C)(C)C1 (stereo not given)
inactive: MDA-N > 10 µM | COLO 205 > 10 µM | OVCAR-8 > 10 µM | SF-295 > 10 µM | SK-MEL-28 > 10 µM | TK-10 > 10 µM | CAKI-1 > 10 µM | OVCAR-3 > 10 µM | Malme-3M > 10 µM | BT-549 > 10 µM | OVCAR-5 > 10 µM | HT-29 > 10 µM | SF-539 > 10 µM | K562 > 10 µM | DU-145 > 10 µM | HL-60 > 10 µM | NCI-H226 > 10 µM | HCC 2998 > 10 µM | SNB-75 > 10 µM | LOX IMVI > 10 µM

CN1C(=O)c2ccccc2OC12C=Cc1c(ccc3ccccc13)O2 (stereo not given)
active: Malme-3M 0.328 µM
inactive: MDA-N 2.36 µM | COLO 205 3.31 µM | OVCAR-8 3.74 µM | SF-295 2.45 µM | SK-MEL-28 14.2 µM | TK-10 7.82 µM | CAKI-1 5.66 µM | OVCAR-3 4.03 µM | BT-549 5.96 µM | OVCAR-5 6.47 µM | HT-29 2.92 µM | SF-539 5.58 µM | K562 2.82 µM | DU-145 8 µM | HL-60 2.99 µM | NCI-H226 5.94 µM | HCC 2998 3.95 µM | SNB-75 4.84 µM | LOX IMVI 5.93 µM

CCOC(NC(=O)CC)(C(F)(F)F)C(F)(F)F
inactive: MDA-N > 100 µM | COLO 205 > 100 µM | OVCAR-8 > 100 µM | SF-295 > 100 µM | SK-MEL-28 > 100 µM | TK-10 > 100 µM | CAKI-1 > 100 µM | OVCAR-3 > 100 µM | Malme-3M > 100 µM | BT-549 > 100 µM | OVCAR-5 > 100 µM | HT-29 > 100 µM | SF-539 > 100 µM | K562 > 100 µM | DU-145 > 100 µM | HL-60 > 100 µM | NCI-H226 > 100 µM | HCC 2998 > 100 µM | SNB-75 > 100 µM | LOX IMVI > 100 µM

CCc1nnc(S)n1/N=C\c1ccc(-c2ccccc2Cl)o1
inactive: MDA-N 20.5 µM | COLO 205 31.3 µM | OVCAR-8 24.3 µM | SF-295 46.2 µM | TK-10 43.7 µM | CAKI-1 45.3 µM | OVCAR-3 40.6 µM | Malme-3M 55.7 µM | BT-549 26.4 µM | OVCAR-5 64.6 µM | HT-29 33.4 µM | SF-539 23 µM | K562 21.9 µM | DU-145 41.3 µM | HL-60 20.4 µM | NCI-H226 17.5 µM | HCC 2998 27.3 µM | SNB-75 28.2 µM | LOX IMVI 23.5 µM

— ChEMBL document CHEMBL1201862, “PubChem BioAssay data set” (2004)
